In brackets after ≈: the same amount, converted by molar mass.
What was measured:
[1] = tested on: UO-31; test: Growth inhibition of human UO-31 cells at 10 uM relative to control; format: functional; settings: read-out: GI
[2] = tested on: HCC 2998; test: Growth inhibition of human HCC 2998 cells at 10 uM relative to control; format: functional; settings: read-out: GI
[3] = tested on: OVCAR-5; test: Growth inhibition of human OVCAR-5 cells at 10 uM relative to control; format: functional; settings: read-out: GI
[4] = tested on: LOX IMVI; test: Growth inhibition of human LOX IMVI cells at 10 uM relative to control; format: functional; settings: read-out: GI
[5] = tested on: NCI-H460; test: Growth inhibition of human NCI-H460 cells at 10 uM relative to control; format: functional; settings: read-out: GI
[6] = tested on: PC-3; test: Growth inhibition of human PC-3 cells at 10 uM relative to control; format: functional; settings: read-out: GI
[7] = tested on: SK-MEL-2; test: Growth inhibition of human SK-MEL-2 cells at 10 uM relative to control; format: functional; settings: read-out: GI
[8] = tested on: SF-539; test: Growth inhibition of human SF-539 cells at 10 uM relative to control; format: functional; settings: read-out: GI
[9] = tested on: Hs-578T; test: Growth inhibition of human Hs-578T cells at 10 uM relative to control; format: functional; settings: read-out: GI
[10] = tested on: MCF7; test: Growth inhibition of human MCF7 cells at 10 uM relative to control; format: functional; settings: read-out: GI
[11] = tested on: TK-10; test: Growth inhibition of human TK-10 cells at 10 uM relative to control; format: functional; settings: read-out: GI
[12] = tested on: MDA-MB-468; test: Growth inhibition of human MDA-MB-468 cells at 10 uM relative to control; format: functional; settings: read-out: GI
[13] = tested on: HOP-92; test: Growth inhibition of human HOP-92 cells at 10 uM relative to control; format: functional; settings: read-out: GI
[14] = tested on: SF-295; test: Growth inhibition of human SF-295 cells at 10 uM relative to control; format: functional; settings: read-out: GI
[15] = tested on: T47D; test: Growth inhibition of human T47D cells at 10 uM relative to control; format: functional; settings: read-out: GI
[16] = tested on: SNB-75; test: Growth inhibition of human SNB-75 cells at 10 uM relative to control; format: functional; settings: read-out: GI
[17] = tested on: NCI-H522; test: Growth inhibition of human NCI-H522 cells at 10 uM relative to control; format: functional; settings: read-out: GI
[18] = tested on: IGROV-1; test: Growth inhibition of human IGROV-1 cells at 10 uM relative to control; format: functional; settings: read-out: GI
[19] = tested on: DU-145; test: Growth inhibition of human DU-145 cells at 10 uM relative to control; format: functional; settings: read-out: GI
[20] = tested on: NCI/ADR-RES; test: Growth inhibition of human NCI/ADR-RES cells at 10 uM relative to control; format: functional; settings: read-out: GI
[21] = tested on: MDA-MB-231; test: Growth inhibition of human MDA-MB-231 cells at 10 uM relative to control; format: functional; settings: read-out: GI
[22] = tested on: NCI-H226; test: Growth inhibition of human NCI-H226 cells at 10 uM relative to control; format: functional; settings: read-out: GI
[23] = tested on: SR; test: Growth inhibition of human SR cells at 10 uM relative to control; format: functional; settings: read-out: GI
[24] = tested on: ACHN; test: Growth inhibition of human ACHN cells at 10 uM relative to control; format: functional; settings: read-out: GI
[25] = tested on: SK-MEL-28; test: Growth inhibition of human SK-MEL-28 cells at 10 uM relative to control; format: functional; settings: read-out: GI
[26] = tested on: UACC-257; test: Growth inhibition of human UACC-257 cells at 10 uM relative to control; format: functional; settings: read-out: GI
[27] = tested on: U-251; test: Growth inhibition of human U-251 cells at 10 uM relative to control; format: functional; settings: read-out: GI
[28] = tested on: CAKI-1; test: Growth inhibition of human CAKI-1 cells at 10 uM relative to control; format: functional; settings: read-out: GI
[29] = tested on: HCT-116; test: Growth inhibition of human HCT-116 cells at 10 uM relative to control; format: functional; settings: read-out: GI
[30] = tested on: OVCAR-8; test: Growth inhibition of human OVCAR-8 cells at 10 uM relative to control; format: functional; settings: read-out: GI
[31] = tested on: SF-268; test: Growth inhibition of human SF-268 cells at 10 uM relative to control; format: functional; settings: read-out: GI
[32] = tested on: BT-549; test: Growth inhibition of human BT-549 cells at 10 uM relative to control; format: functional; settings: read-out: GI
[33] = tested on: OVCAR-4; test: Growth inhibition of human OVCAR-4 cells at 10 uM relative to control; format: functional; settings: read-out: GI
[34] = tested on: UACC-62; test: Growth inhibition of human UACC-62 cells at 10 uM relative to control; format: functional; settings: read-out: GI
[35] = tested on: M14; test: Growth inhibition of human M14 cells at 10 uM relative to control; format: functional; settings: read-out: GI
[36] = tested on: HOP-62; test: Growth inhibition of human HOP-62 cells at 10 uM relative to control; format: functional; settings: read-out: GI
[37] = tested on: SNB-19; test: Growth inhibition of human SNB-19 cells at 10 uM relative to control; format: functional; settings: read-out: GI
[38] = tested on: NCI-H322M; test: Growth inhibition of human NCI-H322M cells at 10 uM relative to control; format: functional; settings: read-out: GI
[39] = tested on: HT-29; test: Growth inhibition of human HT-29 cells at 10 uM relative to control; format: functional; settings: read-out: GI
[40] = tested on: A549; test: Growth inhibition of human A549 cells at 10 uM relative to control; format: functional; settings: read-out: GI
[41] = tested on: A498; test: Growth inhibition of human A498 cells at 10 uM relative to control; format: functional; settings: read-out: GI
[42] = tested on: Malme-3M; test: Growth inhibition of human Malme-3M cells at 10 uM relative to control; format: functional; settings: read-out: GI
[43] = tested on: SK-MEL-5; test: Growth inhibition of human SK-MEL-5 cells at 10 uM relative to control; format: functional; settings: read-out: GI
[44] = tested on: SW-620; test: Growth inhibition of human SW-620 cells at 10 uM relative to control; format: functional; settings: read-out: GI
[45] = tested on: NCI-H23; test: Growth inhibition of human NCI-H23 cells at 10 uM relative to control; format: functional; settings: read-out: GI
[46] = tested on: HL-60(TB); test: Growth inhibition of human HL-60(TB) cells at 10 uM relative to control; format: functional; settings: read-out: GI
[47] = tested on: CCRF-CEM; test: Growth inhibition of human CCRF-CEM cells at 10 uM relative to control; format: functional; settings: read-out: GI
[48] = tested on: HCT-15; test: Growth inhibition of human HCT-15 cells at 10 uM relative to control; format: functional; settings: read-out: GI
[49] = tested on: SN12C; test: Growth inhibition of human SN12C cells at 10 uM relative to control; format: functional; settings: read-out: GI
[50] = tested on: 786-0; test: Growth inhibition of human 786-0 cells at 10 uM relative to control; format: functional; settings: read-out: GI
[51] = tested on: RPMI-8226; test: Growth inhibition of human RPMI-8226 cells at 10 uM relative to control; format: functional; settings: read-out: GI
[52] = tested on: KM12; test: Growth inhibition of human KM12 cells at 10 uM relative to control; format: functional; settings: read-out: GI
[53] = tested on: K562; test: Growth inhibition of human K562 cells at 10 uM relative to control; format: functional; settings: read-out: GI
[54] = tested on: RXF 393; test: Growth inhibition of human RXF 393 cells at 10 uM relative to control; format: functional; settings: read-out: GI
[55] = target: DNA; test: Displacement of methyl green from DNA (unknown origin) assessed as DNA intercalation after 24 hrs by colorimetric assay; format: nucleic-acid assay
[56] = tested on: SK-OV-3; test: Growth inhibition of human SK-OV-3 cells at 10 uM relative to control; format: functional; settings: read-out: GI
[57] = tested on: COLO 205; test: Growth inhibition of human COLO 205 cells at 10 uM relative to control; format: functional; settings: read-out: GI
[58] = tested on: MOLT-4; test: Growth inhibition of human MOLT-4 cells at 10 uM relative to control; format: functional; settings: read-out: GI
[59] = tested on: MDA-MB-435; test: Growth inhibition of human MDA-MB-435 cells at 10 uM relative to control; format: functional; settings: read-out: GI

`C1=CN2C(=NC(/C=C/c3cccs3)=CC2c2cccs2)S1` (centres undefined) was tested, and the inhibition of growth at 10 µM [1] was less than 10%, the inhibition of growth at 10 µM [2] was less than 10% and the inhibition of growth at 10 µM [3] was less than 10%. For the same compound, the inhibition of growth at 10 µM [4] was less than 10%, the inhibition of growth at 10 µM [5] was less than 10% and the inhibition of growth at 10 µM [6] was less than 10%. For the same compound, the inhibition of growth at 10 µM [7] was less than 10%, the inhibition of growth at 10 µM [8] was less than 10% and the inhibition of growth at 10 µM [9] was less than 10%. It also gave an inhibition of growth at 10 µM [10] of less than 10%, an inhibition of growth at 10 µM [11] of less than 10% and an inhibition of growth at 10 µM [12] of less than 10%. For the same compound, the inhibition of growth at 10 µM [13] was less than 10%, the inhibition of growth at 10 µM [14] was less than 10% and the inhibition of growth at 10 µM [15] was less than 10%. The inhibition of growth at 10 µM [16] was 12.3%, the inhibition of growth at 10 µM [17] was less than 10% and the inhibition of growth at 10 µM [18] was less than 10%. The inhibition of growth at 10 µM [19] was less than 10%, the inhibition of growth at 10 µM [20] was less than 10% and the inhibition of growth at 10 µM [21] was less than 10%. The inhibition of growth at 10 µM [22] was less than 10%, the inhibition of growth at 10 µM [23] was less than 10% and the inhibition of growth at 10 µM [24] was less than 10%. For the same compound, the inhibition of growth at 10 µM [25] was less than 10%, the inhibition of growth at 10 µM [26] was less than 10% and the inhibition of growth at 10 µM [27] was less than 10%. For the same compound, the inhibition of growth at 10 µM [28] was less than 10%, the inhibition of growth at 10 µM [29] was less than 10% and the inhibition of growth at 10 µM [30] was less than 10%. The inhibition of growth at 10 µM [31] was less than 10%, the inhibition of growth at 10 µM [32] was less than 10% and the inhibition of growth at 10 µM [33] was less than 10%. It also gave an inhibition of growth at 10 µM [34] of less than 10%, an inhibition of growth at 10 µM [35] of less than 10% and an inhibition of growth at 10 µM [36] of less than 10%. For the same compound, the inhibition of growth at 10 µM [37] was less than 10%, the inhibition of growth at 10 µM [38] was less than 10% and the inhibition of growth at 10 µM [39] was less than 10%. For the same compound, the inhibition of growth at 10 µM [40] was less than 10%, the inhibition of growth at 10 µM [41] was less than 10% and the inhibition of growth at 10 µM [42] was less than 10%. For the same compound, the inhibition of growth at 10 µM [43] was less than 10%, the inhibition of growth at 10 µM [44] was less than 10% and the inhibition of growth at 10 µM [45] was less than 10%. It also gave an inhibition of growth at 10 µM [46] of less than 10%, an inhibition of growth at 10 µM [47] of less than 10% and an inhibition of growth at 10 µM [48] of less than 10%. The inhibition of growth at 10 µM [49] was less than 10%, the inhibition of growth at 10 µM [50] was less than 10% and the inhibition of growth at 10 µM [51] was less than 10%. For the same compound, the inhibition of growth at 10 µM [52] was less than 10%, the inhibition of growth at 10 µM [53] was less than 10% and the inhibition of growth at 10 µM [54] was less than 10%. The IC50 [55] was 33.67 µg/mL (≈ 103 µM), the inhibition of growth at 10 µM [56] was less than 10% and the inhibition of growth at 10 µM [57] was less than 10%. It also gave an inhibition of growth at 10 µM [58] of less than 10% and an inhibition of growth at 10 µM [59] of less than 10%.

From ChEMBL document CHEMBL4665869, “New thiazolopyrimidine as anticancer agents: Synthesis, biological evaluation, DNA binding, molecular modeling and ADMET study” (Bioorg Med Chem Lett, 2020)
